B1: IL-10: phagocytic suppressive cytokine (protein, UniProt P22301 19-178, looked up)
Interleukin-10: SPGQGTQSENSCTHFPGNLPNMLRDLRDAFSRVKTFFQMKDQLDNLLLKESLLEDFKGYLGCQALSEMIQFYLEEVMPQAENQDPDIKAHVNSLGENLKTLRLRLRRCHRFLPCENKSKAVEQVKNAFNKLQEKGIYKAMSEFDIFINYIEAYMTMKIRN

Legend:
[1] = system: SIRPα^−/− and CD47^−/− mice; experiment: Acute anemia and splenomegaly in mice deficient of CD47-SIRPα-mediated inhibition under inflammatory conditions; format: in vivo, mouse; conditions: colitic SIRPα^−/− mice; 1% DSS, 10 days
From the text: FIGS. 1A-1K illustrate our assessment of acute anemia in mice deficient of CD47-SIRPα-mediated inhibition under inflammatory conditions. FIG. 1A includes a schematic drawing of a wild type (WT) and targeted allele of SIRPα (“SIRPα”) and data related to the generation of SIRPα “knock out” (KO) mice. […] Western blot (WB) analysis confirmed the depletion of SIRPα (˜120 kDa) protein in bone marrow leukocytes from SIRPα^−/− mice. FIG. 1B includes a photograph of intestinal tissue and a line graph charting the change in body weight of mice in which colitis had been induced by treatment with 1% or 2% DSS. […] FIGS. 1C and 1D include data related to acute anemia and splenomegaly developed in SIRPα^−/− mice with colitis. WT mice and SIRPα^−/− mice treated with DSS (2% DSS for WT and 1% DSS for SIRPα^−/−) for 10 days were analyzed for the presence of […] (FIG. 1C) and the content of hemoglobin in peripheral blood (FIG. 1D). FIG. 1E includes a panel of photomicrographs in which hematoxylin and eosin (H&E) was used to stain sections of spleens from WT and SIRPα^−/− mice treated with 2% and 1% DSS for 10 days. The bar graph of FIG. 1E illustrates the hemoglobin content in the spleens of WT and SIRPα^−/− mice treated with water or DSS. FIG. 1F is a pair of line graphs showing the time course over which anemia developed in SIRPα^−/− mice when colitis was induced with DSS and the levels of IL-17 in the serum over that same period of time. FIG. 1G is a diagram showing that IL-17 neutralization ameliorates anemia and splenomegaly in SIRPα^−/− mice with colitis. An anti-IL-17 antibody (10 μg, i.v.) was given on days 6 and 8 (arrows) during DSS-induction of colitis. FIG. 1H is a diagram showing that IL-17-containing colitic serum induces acute anemia in SIRPα^−/− mice. Serum samples collected from healthy (Ctl.) and colitic WT mice (2% DSS, 10 d) were administered to healthy SIRPα^−/− mice (i.v., 3×, arrows) with or without an anti-IL-17 antibody. FIGS. 1I and 1J are illustrative graphs showing that IL-17 directly induces acute anemia and splenomegaly in SIRPα^−/− mice and Cd47^−/− mice. Healthy mice were given recombinant IL-17 (10 μg/kg, i.v.) on days 1 and 3 (arrows, FIG. 1J); anemia and splenomegaly were analyzed on day 5 (FIG. 1I) or in a time course manner (FIG. 1J). FIG. 1K includes diagrams showing that acute anemia and splenomegaly in SIRPα^−/− and Cd47^−/− mice under zymosan-peritonitis (3×, every other day), IL-6 administration ([…], i.v.), LPS (0.25 mg/kg, i.p.), and CFA (1×, s.c.) administrations. Error bars are ±SEM **P<0.01, ***P<0.001 vs. control or the beginning time point. Data presented in each panel represent at least three independent experiments with n≥4, if applicable.
Hemoglobin assay: To assay blood hemoglobin, 10 μl of whole blood were obtained from the tail vein followed by lysis in 1 ml distilled water. After centrifugation (13,000 rpm, 30 min), the hemoglobin-containing supernatants were collected and measured for the optical density at the wavelength of 540 nm.
Animal inflammation models: To induce peritonitis, mice (6-8 wk, 20-22 g) were intraperitoneally injected with 0.5 mg zymosan A (Sigma) in 0.5 ml sterile PBS followed by euthanasia at 2, 4, 6 and 8 hours. […] The colitic condition was then assessed by observing diarrhea, measuring body weight loss, increases of inflammatory cytokines, the shortage of the large intestine and intestinal tissue analyses (after euthanasia). […]

[2] = system: CFSE-labeled CD47^+ or CD47^− RBCs in recipient mice; experiment: RBC adoptive transfer and in vivo clearance of CFSE-labeled RBCs; parameters: species or system mouse; conditions: SIRPα^−/− mice; 1% DSS for 8 d or directly injected with IL-17; 24 h
From the text: FIGS. 2A-2E includes data related to macrophage phagocytosis in vivo assessed by adoptive transfer experiments. FIGS. 2A-C are illustrative graphs showing clearance of adoptively transferred CD47-positive (Cd47^+) or CD47-negative (Cd47^−) RBC in recipient mice. […] Error bars are ±SEM. **P<0.01, ***P<0.001 vs. WT mice clearance of Cd47^+ RBCs. […] Mice treated with DSS (1% for SIRPα^−/− mice, 2% for WT and Cd47^−/− mice) for 8 d (d8) were transfused with CFSE-RBCs followed by determination of RBC clearance after 24 h. FACS data of Cd47^+ RBCs and Cd47^− RBCs in different mice at 30 min and 24 h after transfer were selectively shown. Total RBC phagocytosis was calculated based on the rates of CFSE-RBC clearance and the fact that SIRPα^−/− mice eliminate both Cd47^− RBC and Cd47^+ RBC, whereas WT mice and Cd47^−/− mice eliminate only Cd47^− RBCs. […] Mice treated once with IL-17 (10 μg/kg, i.v.) were transfused with CFSE-labeled Cd47^+ or Cd47^− RBCs a day later. Error bars are ±SEM. **P<0.01, ***P<0.001 vs. control or the initial time point. Data presented in each panel represent at least three independent experiments with n≥4, if applicable.
Adoptive transfer and in vivo clearance: CD47-expressing (CD47^+) RBC freshly collected from WT or SIRPα^−/− mice, and CD47-null (CD47^−) RBC collected from CD47^−/− mice were labeled with carboxyfluorescein succinimidyl ester (CFSE). After washing, about 1×10^9 RBC suspended in 200 μl sterile PBS were transfused into recipient mice by intravenous (i.v.) injection. Blood samples (5 μl) were then collected 30 min after the blood transfusion and the CFSE-labeled RBC in the circulation was assessed by FACS analyses. Blood samples (5 μl each) were then collected at later time points to assess the clearance of CFSE-labeled RBC as compared to that found at 30 min. For each sample, at least 50,000 RBC were examined by FACS. […] Clearance of CFSE-labeled cells in the circulation and the spleen were analyzed by FACS analyses of blood samples and splenocytes. […]

[3] = system: Syk; experiment: Syk phosphorylation at Y519/520 in PEMs; format: cell-based, mouse
Experimental: FIGS. 5A-5H include data related to our experiments on the role of Syk in phagocytic activation. […] PEMs were treated with LPS and cytokines in the presence of various inhibitors. After washing, inhibitor-free macrophages were tested for phagocytosis toward RBCs. […] PEMs treated with LPS and activating cytokines, or together with IL-10, were tested for total Syk and phosphorylated Syk (Syk^pY, specific at Y519/520). FIG. 5D describes PMA-induced macrophages phagocytosis toward RBCs. WT and SIRPα^−/− PEMs were treated with PMA (37° C., 30 min) before testing phagocytosis toward RBCs. FIG. 5E is a schematic depiction of PKC-Syk-mediated macrophage phagocytic activation toward self. […] Left: Inhibition of Syk by piceatannol and R406 prevented PMA-induced phagocytic activation. […] Error bars are ±SEM. ***P<0.001 vs. the respective controls. […] LPS-treated WT PEMs were further briefly treated with pervanadate before testing for phagocytosis toward RBCs. Error bars are ±SEM. ***P<0.001 vs. the respective controls. […] Data presented in each panel represent at least three independent experiments with n≥4, if applicable.
Multiple pharmacological inhibitors were tested for their effects on LPS and cytokine-induced activation of macrophage phagocytosis toward self. […] For example, inhibition of JAKs blocked IL-6 and IL-17, but not LPS and TNFα, for activation of PEM phagocytosis. […]

[4] = system: splenic macrophages, PEMs and BMDMs; experiment: Ex vivo macrophage phagocytosis toward RBCs and other self-cells after activation; format: cell-based, mouse; conditions: various concentrations of IL-10
Experimental: FIGS. 3A-3H include data related to our experiments assaying macrophage phagocytosis ex vivo. FIGS. 3A and 3B show macrophage phagocytosis of RBCs. Freshly isolated splenic macrophages (MØ) and peritoneal macrophages (PEM) and in vitro-derived BMDM (bone marrow-derived macrophages) were tested for phagocytosis toward CFSE-labeled Cd47^+ or Cd47^− RBCs. […] FIGS. 3F and 3G illustrate LPS and IL-17-activated PEM phagocytosis toward splenocytes (FIG. 3F), B16, and EL4 (FIG. 3G). Error bars are ±SEM. **P<0.01, ***P<0.001 vs. no treatment controls. […] PEM lavaged without (ctl.) or with Brewer thioglycollate (3%, i.p.) elicitation was tested. Error bars are ±SEM. ***P<0.001 vs. control PEM. Data presented in each panel represent at least three independent experiments with n≥4, if applicable.
FIGS. 4A-4E include data related to our experiments on macrophage phagocytic plasticity. FIG. 4A is a panel of illustrative line graphs showing that IL-10 inhibits macrophage phagocytosis toward “self.” PEMs were treated with LPS and activating cytokines along with various concentrations of IL-10 before testing their ability to phagocytose RBCs. FIG. 4B illustrates the phagocytic plasticity of WT red pulp macrophages. […] Treatments of cultured macrophages with LPS and IL-17 re-elicited their phagocytosis toward RBCs. […] Error bars are ±SEM. ***P<0.001 vs. freshly isolated splenic macrophages. FIG. 4D includes microscopic images of RBC phagocytosis by LPS- and IL-17-treated splenic macrophages. […] WT PEMs treated with LPS or IL-17 were further treated with Cd47^+ RBCs or Cd47-AP (10 min, 37° C.) followed by cell lysis, SIRPα immunoprecipitation, and WB detection of SIRPα phosphorylation (SIRPα^pY) and SHP-1 association. Data presented in each panel represent at least three independent experiments with n≥4, if applicable.
Ex vivo macrophage phagocytosis: Mouse spleens were harvested and minced in cold HBSS followed by passing through nylon meshes. The spleen cells in suspensions were collected by centrifugation followed by washing. After lysis of RBC, splenocytes were plated in cell culture dishes in DMEM with 10% FBS and cultured for 2 h followed by removal of non-adherent cells. The adherent cells, ˜70% being macrophages as determined by anti-F4/80 staining, were tested for phagocytosis. For phagocytosis of RBC or other tissue cells, targeted cells were labeled with CFSE prior to addition into the macrophage-containing wells. Macrophages and target cells, at a ratio of 1:5-10 for RBC or 1:1-2 for other cells, were co-incubated for 30 min at 37° C. followed by gently washing. Macrophage phagocytosis of target cells was then analyzed by fluorescence microscopy and/or by FACS. To better recognize macrophages, macrophages in wells were labeled with an anti-F4/80 or an anti-CD11b antibody. Alternatively, the freshly isolated splenocytes in suspension were incubated with CFSE-labeled RBC and other phagocytic targets for 30 min at 37° C. Macrophage phagocytosis was then determined by FACS after labeling macrophages with anti-F4/80. To test phagocytosis of apoptotic cells, B16 cells were irradiated by UV for 150 seconds at 50 J/m^2 strength. Apoptosis was analyzed at 2, 4, 6, 8 and 18 h post UV irradiation by labeling of the cells with anti-phosphatidylserine (PS) antibody (data not shown) or FITC-conjugated annexin V (data not shown). Cells that were confirmed to be apoptotic were trypsinized, labeled with CFSE, and then co-incubated with macrophages for 30 min at 37° C. After gentle washing, phagocytosis was analyzed by fluorescence microscopy and/or FACS. To test phagocytosis of bacteria and the fungal product zymosan, AlexaFluor-conjugated E.coli strain […] (2 μl suspension, ˜2 μg) or zymosan bioparticles (1 μl suspension, ˜2 μg) (both from Invitrogen) were incubated with macrophages for 30 min followed by washing and analyses. Similar procedures were performed to test phagocytosis of macrophages from various sources. […]

| Molecule | peripheral hemoglobin reduction [1] | clearance of transferred CD47^+ and CD47^− RBCs [2] | Syk phosphorylation (Syk^PY, Y519/520) [3] | LPS-, IL-17-, IL-6-, TNFα-, and IL-1β-induced activation of PEM phagocytosis toward RBCs [4] |
| --- | --- | --- | --- | --- |
| dextran sodium sulfate [DSS] | 40-50 | ~50% |  |  |
| B1 |  |  | counter-repressed Syk phosphorylation | dose-dependently inhibited |

Reference: patent US11026972B2, “Methods for generating macrophages with enhanced cancer phagocytosis” (Georgia State University Research Foundation, Inc., priority 2016, dated 2021)
